Where two headings read alike, the source gives them in different places.
What was measured:
[1] = test system: caterpillars of the armyworm (Spodoptera frugiperda); experiment: Spodoptera frugiperda test (SPODFR spray treatment); assay type: in vivo; details: Spodoptera frugiperda, 168 h, read-out: activity in % (caterpillars killed)
[2] = log P by HPLC on reversed-phase columns (EEC Directive 79/831 Annex V.A8); assay type: physicochemical; details: for log P (second value after the slash): pH 2.7
[3] = test system: larvae of the mustard beetle (Phaedon cochleariae); experiment: Phaedon test (PHAECO spray treatment); details: Phaedon cochleariae, 168 h, read-out: activity in % (beetle larvae killed)
[4] = test system: green peach aphid (Myzus persicae); experiment: Myzus test (MYZUPE spray treatment); assay type: in vivo; details: Myzus persicae, 144 h; for pest or weed control at 100 g/ha / pest or weed control at 500 g/ha: read-out: activity in % (aphids killed)
[5] = reversed-phase C18 HPLC column, pH 2.7, HPLC reversed-phase C18, acidic range pH 2.7 (HCOOH), only or first value of the cell, read-out: log P
[6] = application rate 100 g/ha, after 6 days

chromatographic logP [2, 5] | SMILES | pest or weed control at 100 g/ha ([1]; application rate 100 g/ha, after 7 days) | pest or weed control at 100 g/ha [3] | pest or weed control at 100 g/ha [4, 6] | pest or weed control at 500 g/ha [1] | log P (second value after the slash) [2] | chromatographic logP ([2]; pH 2.7, log P) | pest or weed control at 500 g/ha [3] | pest or weed control at 500 g/ha [4] | inhibition at 100 g/ha ([4]; 100 g/ha, 6 d, comparison with prior art) | pest or weed control at 500 g/ha ([1]; application rate 500 g/ha, after 7 days) | pest or weed control at 100 g/ha [1] | pest or weed control at 100 g/ha [4]
3.05 | Cc1cc(C#N)cc(C(=O)NC2COC2)c1NC(=O)c1cc(Cn2nnc(C(F)(F)F)n2)nn1-c1c(Cl)cccc1Cl [Example 28] | 100% | 100% | 100% | – | – | – | – | – | – | – | – | –
– | Cc1cc(C#N)cc(C(=O)NC2CCS(=O)(=O)C2)c1NC(=O)c1cc(Cn2nnc(C(F)(F)F)n2)nn1-c1ncccc1Cl (centres unmarked) [Example 29, 1-(3-chloropyridin-2-yl)-N-{4-cyano-2-[(1,1-dioxidotetrahydrothiophen-3-yl)carbamoyl]-6-methylphenyl}-3-{[5-(trifluoromethyl)-2H-tetrazol-2-yl]methyl}-1H-pyrazole-5-carboxamide] | – | – | – | 100% | 2.17 | 2.47 | 100% | 100% | 100% | – | – | –
2.14 | Cc1cc(C#N)cc(C(=O)NC2CCN(Cc3ccccc3)C2)c1NC(=O)c1cc(Cn2nnc(C(F)(F)C(F)(F)F)n2)nn1-c1ncccc1Cl (centres unmarked) [Example 32] | – | – | 90% | – | – | – | 100% | – | – | 100% | – | –
– | Cc1cc(Cl)cc(C(=O)NC2CCS(=O)(=O)C2)c1NC(=O)c1cc(Cn2nnc(C(F)(F)F)n2)nn1-c1ncccc1Cl (centres unmarked) [Example 34] | – | 100% | – | – | – | 2.78 | – | – | – | – | 100% | 100%
– | Cc1cc(Cl)cc(C(=O)NC2CS(=O)(=O)CC2O)c1NC(=O)c1cc(Cn2nnc(C(F)(F)F)n2)nn1-c1ncccc1Cl (centres unmarked) [Example 35] | – | 100% | – | – | – | 2.58 | – | – | – | – | 100% | 80%
– | Cc1cc(C#N)cc(C(=O)NC2CCSC2=O)c1NC(=O)c1cc(Cn2nnc(C(F)(F)F)n2)nn1-c1ncccc1Cl (centres unmarked) [Example 39] | – | – | – | 100% | 2.57 | 2.89 | 100% | 100% | – | – | – | –
– | Cc1cc(Cl)cc(C(=O)NN2CCN(C)C2=O)c1NC(=O)c1cc(Cn2nnc(C(F)(F)F)n2)nn1-c1ncccc1Cl [Example 41] | – | 100% | – | – | – | 2.64 | – | – | – | – | 100% | 80%
– | Cc1cc(Cl)cc(C(=O)NC2=NCCS2)c1NC(=O)c1cc(Cn2nnc(C(F)(F)F)n2)nn1-c1ncccc1Cl [Example 45] | – | 100% | – | – | 3.14 | 3.5 | – | – | – | – | 100% | 100%
– | Cc1cc(C#N)cc(C(=O)NC2=NCCS2)c1NC(=O)c1cc(Cn2nnc(C(F)(F)F)n2)nn1-c1ncccc1Cl [Example 46] | – | 100% | – | – | 2.75 | 3.11 | – | – | – | – | 100% | 100%
– | Cc1cc(C#N)cc(C(=O)NC2=NCCS2)c1NC(=O)c1cc(Cn2nnc(C(F)(F)C(F)(F)F)n2)nn1-c1ncccc1Cl [Example 48] | – | 100% | – | – | 3.18 | 3.49 | – | – | – | – | 100% | 80%
– | Cc1cc(C#N)cc(C(=O)NC2CCN(C)C2=O)c1NC(=O)c1cc(Cn2nnc(C(F)(F)F)n2)nn1-c1ncccc1Cl (centres unmarked) [Example 49] | – | 100% | – | – | 2.19 | 2.39 | – | – | – | – | 100% | 100%
– | Cc1cc(Cl)cc(C(=O)NC2CCN(C)C2=O)c1NC(=O)c1cc(Cn2nnc(C(F)(F)F)n2)nn1-c1ncccc1Cl (centres unmarked) [Example 50] | – | 100% | – | – | 2.36 | 2.66 | – | – | – | – | 100% | 100%

From patent US8791143B2, “Anthranilic diamide derivatives having cyclic side-chains” (priority 2010, dated 2014)
